These results are taken from US11266668B2, “Dietary supplement for glycemia control and diabetes prevention” (WORLD PHARMACEUTICAL TECHNOLOGY, LLC., priority 2018, dated 2022).

SMILES strings stand for the structures. Marks after values point to notes of the source that are not given here.

The conditions of data set [1]: clinical phase I dose-escalation trial; cited from earlier work.
The subject of the next data set is Sprague-Dawley (SD) rats. The data set is described as follows: sucrose loading test (postprandial blood glucose after sucrose gavage). The data set is classed as in vivo, rat. The following applies: male SD rats, sucrose 2.0 g/kg gavage, 5 mg/kg. The method, then: The inhibitory effect of Example Formula 1 and Example Formula 2 (see Table 1 and Table 2) on postprandial hyperglycemia after carbohydrate loading in Sprague-Dawley (SD) rats was assessed. All animal studies were performed according to the Act on Welfare and Management of Animals law—Act No. 105 of Oct. 1, 1973. Six week-old male SD rats were utilized and fed a solid diet for one week. Rats were housed five per cage in a room with a 12:12 hour light:dark cycle and an ambient temperature of 22-25° C. After 4 groups (n=5) were fasted for one day, 2.0 g/kg of sucrose were gavaged concurrently with Example Formula 1 (200 and 400 mg/kg) (e.g., provided at 200 or 400 mg total weight of Example Formula 1 per 1 Kg of the testing subject or patient) or 5 mg/kg Acarbose. The blood samples were collected from the tail after treatment and blood glucose concentrations were determined at 0, 0.5, 1, and 2 hours by utilizing glucose oxidase method. FIG. 1 and FIG. 2 show the effect of different dosage of Example Formula 1 or Example Formula 2 on sucrose loading test. After fasting for one day, 7-week-old, male SD rats were gavaged with sucrose solution (2.0 g/kg) with or without (the Control sample) Example Formula 1 or Example Formula 2. Acarbose was utilized as a positive control. Each point in the drawing represents mean±SD. (n=5). *p<0.05, **p<0.01 versus their corresponding controls at the same time points by unpaired Student's t-test. After fasting for one day, 7-week-old, male SD rats were gavaged with sucrose solution (2.0 g/kg) with or without the Comparative Example Formula 1. Acarbose was used as a positive control. Each point represents mean±SD. (n=5). *p<0.05, **p<0.01 versus their corresponding controls at the same time points by unpaired Student's t-test. Table 4 below lists the blood glucose level of rats under different dosage of Example Formula 1 and Comparative Example Formula 1 on sucrose loading test (unit: mM). The procedure is as described above. After fasting for one day, 7-week-old, male SD rats were gavaged with sucrose solution (2.0 g/kg) with or without Example Formula 1 or Comparative Example Formula 1. Acarbose was used as a positive control. Each point represents mean±SD. (n=5). *p<0.05, **p<0.01 versus their corresponding controls at the same time points by unpaired Student's t-test.

As to `O=CC[C@@H](O)[C@H](O)[C@H](O)CO` [2-deoxy-D-glucose], the clinically tolerable dose in data set [1] is on record as 63 mg/kg.
Regarding `C[C@H]1O[C@H](O[C@H]2[C@H](O)[C@@H](O)[C@@H](O[C@H]3[C@H](O)[C@@H](O)C(O)O[C@@H]3CO)O[C@@H]2CO)[C@H](O)[C@@H](O)[C@@H]1N[C@H]1C=C(CO)[C@@H](O)[C@H](O)[C@H]1O` (some centres unmarked) [Acarbose], the blood glucose level in the data set on Sprague-Dawley (SD) rats (time 0 hour) was 5.4 ± 0.2 mM; with Sprague-Dawley (SD) rats (time 0.5 hour), 6.5 ± 0.3** mM; with Sprague-Dawley (SD) rats (time 1 hour) it was 6.9 ± 0.4** mM; in the data set on Sprague-Dawley (SD) rats (time 2 hour), 6.5 ± 0.4 mM.
